The values that follow come from patent publication US7507730B2, “Substituted pyrazolo[1,5-a]pyrimidines as potassium channel activators” (Bristol-Myers Squibb Company, priority 2005, dated 2009).

The structures appear in SMILES notation.

Kv1.5, sequence (P22460 whole entry): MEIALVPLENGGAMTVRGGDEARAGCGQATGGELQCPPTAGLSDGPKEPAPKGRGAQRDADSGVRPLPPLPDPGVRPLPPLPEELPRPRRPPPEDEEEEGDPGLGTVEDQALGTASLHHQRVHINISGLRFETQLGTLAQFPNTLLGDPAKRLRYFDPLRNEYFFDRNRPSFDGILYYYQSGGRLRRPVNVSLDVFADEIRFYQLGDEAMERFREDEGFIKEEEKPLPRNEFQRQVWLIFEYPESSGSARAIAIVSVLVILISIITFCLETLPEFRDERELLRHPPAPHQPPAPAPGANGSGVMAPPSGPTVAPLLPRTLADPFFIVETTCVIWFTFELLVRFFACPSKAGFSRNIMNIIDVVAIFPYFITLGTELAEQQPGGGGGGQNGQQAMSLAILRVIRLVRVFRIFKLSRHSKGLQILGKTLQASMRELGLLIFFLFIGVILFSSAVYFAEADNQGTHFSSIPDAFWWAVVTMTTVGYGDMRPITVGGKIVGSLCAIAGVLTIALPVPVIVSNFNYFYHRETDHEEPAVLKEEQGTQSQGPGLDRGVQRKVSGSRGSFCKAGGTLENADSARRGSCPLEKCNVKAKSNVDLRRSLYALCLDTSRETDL

One assay deals with Kv1.5 (Homo sapiens, UniProt P22460). Nature of the assay: Kv1.5 inhibition assay (IKur inhibitor assay per cited references). It is filed as cell-based. The conditions noted are these: at 0.3 μM. The text has this:
Assays to determine the degree of activity of a compound as an IKur inhibitor are well known in the art and are described in references such as J. Gen. Physiol. Apr.; 101 (4):513-43, and Br. J. Pharmacol. 1995 May; 115(2):267-74.
The molecule `COc1ccccc1S(=O)(=O)C1=C(C)Nc2cc(C(F)(F)F)nn2C1c1ccc(Cl)cc1` (single isomer, unassigned) [Example 46 Isomer 2, 7-(4-Chlorophenyl)-6-(2-methoxyphenylsulfonyl)-5-methyl-2-(trifluoromethyl)-4,7-dihydropyrazolo[1,5-a]pyrimidine] yielded a Kv1.5% inhibition of 74.7%.
On to `CC1=C(S(=O)(=O)c2ccccn2)C(c2ccc(Cl)cc2)n2nc(C(F)(F)F)cc2N1` (single isomer, unassigned) [Example 47 Isomer 2, 7-(4-Chlorophenyl)-5-methyl-6-(pyridin-2-ylsulfonyl)-2-(trifluoromethyl)-4,7-dihydropyrazolo[1,5-a]pyrimidine], for which the inhibition at 0.3 µM worked out at 75.8%.
The molecule `COc1ccc(S(=O)(=O)C2=C(CO)Nc3cc(C(F)(F)F)nn3C2c2ccc(Cl)cc2)cc1` (single isomer, unassigned) [Example 49 Isomer 1, (7-(4-Chlorophenyl)-6-(4-methoxyphenylsulfonyl)-2-(trifluoromethyl)-4,7-dihydropyrazolo[1,5-a]pyrimidin-5-yl)methanol] gave a Kv1.5% inhibition of 19.6%.
Molecule `COc1ccc(S(=O)(=O)C2=C(CO)Nc3cc(C(F)(F)F)nn3C2c2ccc(Cl)cc2)cc1` (single isomer, unassigned) [Example 49 Isomer 2, (7-(4-Chlorophenyl)-6-(4-methoxyphenylsulfonyl)-2-(trifluoromethyl)-4,7-dihydropyrazolo[1,5-a]pyrimidin-5-yl)methanol] yielded a Kv1.5% inhibition of 71.2%.
As for `CC1=C(S(=O)(=O)c2ccc(Cl)cc2)C(c2cncnc2)n2nc(C(F)(F)F)cc2N1` (single isomer, unassigned) [Example 50 Isomer 1, 6-(4-Chlorophenylsulfonyl)-5-methyl-7-(pyrimidin-5-yl)-2-(trifluoromethyl)-4,7-dihydropyrazolo[1,5-a]pyrimidine], testing at 0.3 µM gave an inhibition of 15.1%.
`CC1=C(S(=O)(=O)c2ccc(Cl)cc2)C(c2cncnc2)n2nc(C(F)(F)F)cc2N1` (single isomer, unassigned) [Example 50 Isomer 2, 6-(4-Chlorophenylsulfonyl)-5-methyl-7-(pyrimidin-5-yl)-2-(trifluoromethyl)-4,7-dihydropyrazolo[1,5-a]pyrimidine] showed a Kv1.5% inhibition of 14.7%.
`COc1ccc(S(=O)(=O)C2=C(C)Nc3cc(C(F)(F)F)nn3C2c2ccc(Cl)cc2)cc1OC` (single isomer, unassigned) [Example 51 Isomer 1, 7-(4-Chlorophenyl)-6-(3,4-dimethoxyphenylsulfonyl)-5-methyl-2-(trifluoromethyl)-4,7-dihydropyrazolo[1,5-a]pyrimidine] showed an inhibition at 0.3 µM of 69.2%.
`COc1ccc(S(=O)(=O)C2=C(C)Nc3cc(C(F)(F)F)nn3C2c2ccc(Cl)cc2)cc1OC` (single isomer, unassigned) [Example 51 Isomer 2, 7-(4-Chlorophenyl)-6-(3,4-dimethoxyphenylsulfonyl)-5-methyl-2-(trifluoromethyl)-4,7-dihydropyrazolo[1,5-a]pyrimidine] came in with a Kv1.5% inhibition of 79.2%.
With `CC1=C(S(=O)(=O)N2CCCC2)C(c2ccc(Cl)c(Cl)c2)n2nc(C)cc2N1` (single isomer, unassigned) [Example 53 Isomer 1, 7-(3,4-Dichlorophenyl)-2,5-dimethyl-6-(pyrrolidin-1-ylsulfonyl)-4,7-dihydropyrazolo[1,5-a]pyrimidine], the Kv1.5% inhibition turned out to be 95.7%.
Take `CC1=C(S(=O)(=O)N2CCCC2)C(c2ccc(Cl)c(Cl)c2)n2nc(C)cc2N1` (single isomer, unassigned) [Example 53 Isomer 2, 7-(3,4-Dichlorophenyl)-2,5-dimethyl-6-(pyrrolidin-1-ylsulfonyl)-4,7-dihydropyrazolo[1,5-a]pyrimidine]: the Kv1.5% inhibition is reported as 54.7%.
`CC1=C(S(=O)(=O)NCc2ccccc2)C(c2ccc(Cl)cc2)n2nc(C)cc2N1` (single isomer, unassigned) [Example 55 Isomer 1, N-Benzyl-7-(4-chlorophenyl)-2,5-dimethyl-4,7-dihydropyrazolo[1,5-a]pyrimidine-6-sulfonamide] registered an inhibition at 0.3 µM of 22.9%.
In the case of `CC1=C(S(=O)(=O)NCc2ccccc2)C(c2ccc(Cl)cc2)n2nc(C)cc2N1` (single isomer, unassigned) [Example 55 Isomer 2, N-Benzyl-7-(4-chlorophenyl)-2,5-dimethyl-4,7-dihydropyrazolo[1,5-a]pyrimidine-6-sulfonamide], the Kv1.5% inhibition is recorded as 17.2%.
For the molecule `CC1=C(S(=O)(=O)NCc2ccccc2)C(c2ccc(Cl)c(Cl)c2)n2nc(C(F)(F)F)cc2N1` (single isomer, unassigned) [Example 56 Isomer 1, N-Benzyl-7-(3,4-dichlorophenyl)-5-methyl-2-(trifluoromethyl)-4,7-dihydropyrazolo[1,5-a]pyrimidine-6-sulfonamide], the inhibition at 0.3 µM is 50%.
On to `CC1=C(S(=O)(=O)NCc2ccccc2)C(c2ccc(Cl)c(Cl)c2)n2nc(C(F)(F)F)cc2N1` (single isomer, unassigned) [Example 56 Isomer 2, N-Benzyl-7-(3,4-dichlorophenyl)-5-methyl-2-(trifluoromethyl)-4,7-dihydropyrazolo[1,5-a]pyrimidine-6-sulfonamide], for which the Kv1.5% inhibition is on record as 37.5%.
`CC1=C(S(=O)(=O)NC(C)(C)C)C(c2ccc(Cl)cc2)n2nc(C(F)(F)F)cc2N1` (single isomer, unassigned) [Example 57 Isomer 1, N-tert-Butyl-7-(4-chlorophenyl)-5-methyl-2-(trifluoromethyl)-4,7-dihydropyrazolo[1,5-a]pyrimidine-6-sulfonamide]: testing at 0.3 µM gave an inhibition of 48.6%.
For the molecule `CC1=C(S(=O)(=O)NC(C)(C)C)C(c2ccc(Cl)cc2)n2nc(C(F)(F)F)cc2N1` (single isomer, unassigned) [Example 57 Isomer 2, N-tert-Butyl-7-(4-chlorophenyl)-5-methyl-2-(trifluoromethyl)-4,7-dihydropyrazolo[1,5-a]pyrimidine-6-sulfonamide], the Kv1.5% inhibition turned out to be 36.9%.
The molecule `CC1=C(S(=O)(=O)NC(C)(C)C)C(c2ccc(Cl)c(Cl)c2)n2nc(C(F)(F)F)cc2N1` (single isomer, unassigned) [Example 58 Isomer 1, N-tert-Butyl-7-(3,4-dichlorophenyl)-5-methyl-2-(trifluoromethyl)-4,7-dihydropyrazolo[1,5-a]pyrimidine-6-sulfonamide] returned an inhibition at 0.3 µM of 42.9%.
Regarding `CC1=C(S(=O)(=O)NC(C)(C)C)C(c2ccc(Cl)c(Cl)c2)n2nc(C(F)(F)F)cc2N1` (single isomer, unassigned) [Example 58 Isomer 2, N-tert-Butyl-7-(3,4-dichlorophenyl)-5-methyl-2-(trifluoromethyl)-4,7-dihydropyrazolo[1,5-a]pyrimidine-6-sulfonamide], the Kv1.5% inhibition was determined as 37.7%.

Still in this assay, the particulars now being: read-out: Kv1.5 IC50.
`CC1=C(S(=O)(=O)c2ccccn2)C(c2ccc(Cl)cc2)n2nc(C(F)(F)F)cc2N1` (single isomer, unassigned) [Example 47 Isomer 1, 7-(4-Chlorophenyl)-5-methyl-6-(pyridin-2-ylsulfonyl)-2-(trifluoromethyl)-4,7-dihydropyrazolo[1,5-a]pyrimidine]: the IC50 came out at 197 nM.

In general, inhibition refers to the drop in the measured response relative to a control, in per cent. A low value points to a weak effect. Broadly, the IC50 is the midpoint of a concentration-inhibition curve.
